In patent US6737383B1, “Herbicidal oxadiazolidines” (priority 1999, dated 2004):

How the values were obtained:
soybean = assay: Test B pre/postemergence soybean; type: in vivo, Glycine max
Method in brief: (§1)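 Test chemicals in a non-phytotoxic solvent mixture with surfactant were sprayed preemergence onto planted seeds and postemergence onto plants 2 to 18 cm tall (1- to 4-leaf stage). After twelve to sixteen days in a greenhouse, injury was visually rated against untreated controls from 0 (no effect) to 10 (complete control).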

smallflower flatsedge = assay: Test B flood test smallflower flatsedge; type: in vivo, Cyperus difformis
Method in brief: (§2)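 Plants were grown to the 2-leaf stage before treatment with test chemical, then held in a greenhouse for twelve to sixteen days. Injury was visually rated against untreated controls on a 0–10 scale, where 0 is no effect and 10 is complete control.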

bamyardgrass = assay: Test B flood test barnyardgrass; type: in vivo, Echinochloa crus-galli
Method in brief: as §2

surinam grass = assay: Test B pre/postemergence surinam grass; type: in vivo, Brachiaria decumbens
Method in brief: as §1

purple nutsedge = assay: Test B pre/postemergence purple nutsedge; type: in vivo, Cyperus rotundus
Method in brief: as §1

velvetleaf = assay: Test B pre/postemergence velvetleaf; type: in vivo, Abutilon theophrasti
Method in brief: as §1

sugar beet = assay: Test B pre/postemergence sugar beet; type: in vivo, Beta vulgaris
Method in brief: as §1

cocklebur = assay: Test B pre/postemergence cocklebur; type: in vivo, Xanthium strumarium
Method in brief: as §1

rice = assay: Test B flood test rice; type: in vivo, Oryza sativa
Method in brief: as §2

pigweed = assay: Test B pre/postemergence pigweed; type: in vivo, Amaranthus retroflexus
Method in brief: as §1

corn = assay: Test B pre/postemergence corn; type: in vivo, Zea mays
Method in brief: as §1

crabgrass = assay: Test B pre/postemergence crabgrass; type: in vivo, Digitaria sanguinalis
Method in brief: as §1

wild oat = assay: Test B pre/postemergence wild oat; type: in vivo, Avena fatua
Method in brief: as §1

blackgrass = assay: Test B pre/postemergence blackgrass; type: in vivo, Alopecurus myosuroides
Method in brief: as §1

giant foxtail = assay: Test B pre/postemergence giant foxtail; type: in vivo, Setaria faberii
Method in brief: as §1

bedstraw = assay: Test B pre/postemergence bedstraw; type: in vivo, Galium aparine
Method in brief: as §1

[1] = Preemergence, Rate 62 g/ha, scale of 0 to 10 where 0 is no effect and 10 is complete control
[2] = Preemergence, Rate 250 g/ha, scale of 0 to 10 where 0 is no effect and 10 is complete control
[3] = Preemergence, Rate 500 g/ha, scale of 0 to 10 where 0 is no effect and 10 is complete control
[4] = Rate 62 g/ha, Postemergence, scale 0 to 10 (0 no effect, 10 complete control)
[5] = Rate 125 g/ha, Postemergence, scale of 0 to 10 where 0 is no effect and 10 is complete control
[6] = Rate 250 g/ha, Postemergence, scale of 0 to 10 where 0 is no effect and 10 is complete control
[7] = Rate 62 g/ha, headed Pre-emergence (flood test species), scale 0 to 10 (0 no effect, 10 complete control)
[8] = Rate 125 g/ha, Pre-emergence, flood test species, scale 0 to 10 where 0 is no effect and 10 is complete control
[9] = Rate 250 g/ha, Pre-emergence, flood-test species, scale 0 to 10, 0 is no effect, 10 is complete control
[10] = Rate 500 g/ha, Pre-emergence, flood test species, scale 0 to 10 (0 no effect, 10 complete control)
[11] = Rate 500 g/ha, Postemergence, scale 0 to 10, 0 no effect, 10 complete control

## CC(C)n1c(=O)on(C(=O)N(c2ccc(Cl)cc2Cl)C2CCC2)c1=O [Compound 319]
soybean; [1]
  Soybean plant response rating: 0
soybean; Preemergence, Rate 125 g/ha
  Soybean plant response rating (0 to 10 scale): 0
soybean; [2]
  Soybean plant response rating: 0
soybean; [3]
  Soybean plant response rating: 0
soybean; [4]
  Soybean plant response rating: 0
soybean; [5]
  Soybean plant response rating: 1
soybean; [6]
  Plant response rating, Soybean: 1
Smallflower flatsedge; [7]
  S. Flatsedge plant response rating: 0
Smallflower flatsedge; [8]
  S. Flatsedge plant response rating: 0
Smallflower flatsedge; [9]
  S. Flatsedge plant response rating: 0
Smallflower flatsedge; [10]
  S. Flatsedge plant response rating: 0
bamyardgrass; [7]
  Barnyardgrass plant response rating: 0
bamyardgrass; [8]
  Barnyardgrass plant response rating: 0
bamyardgrass; [9]
  Barnyardgrass plant response rating: 0
bamyardgrass; [10]
  Barnyardgrass plant response rating: 2
Surinam grass; [1]
  B. signalgrass plant response rating: 0
Surinam grass; Preemergence, Rate 125 g/ha
  B. signalgrass plant response rating (0 to 10 scale, 0 is no effect, 10 is complete control): 0
Surinam grass; [2]
  B. signalgrass plant response rating: 2
Surinam grass; [3]
  B. signalgrass plant response rating: 3
Surinam grass; [4]
  B. signalgrass plant response rating: 0
Surinam grass; [5]
  B. signalgrass plant response rating: 0
Surinam grass; [6]
  Plant response rating, B. signalgrass: 0
Surinam grass; [11]
  B. signalgrass plant response rating: 0
Purple nutsedge; [1]
  Nutsedge plant response rating: 0
Purple nutsedge; Preemergence, Rate 125 g/ha
  Nutsedge plant response rating (0 to 10 scale): 0
Purple nutsedge; [2]
  Nutsedge plant response rating: 0
Purple nutsedge; [3]
  Nutsedge plant response rating: 0
Purple nutsedge; [4]
  Nutsedge plant response rating: 0
Purple nutsedge; [5]
  Nutsedge plant response rating: 0
Purple nutsedge; [6]
  Plant response rating, Nutsedge: 0
velvetleaf; [1]
  Velvetleaf plant response rating: 0
velvetleaf; Preemergence, Rate 125 g/ha
  Velvetleaf plant response rating (0 to 10 scale): 0
velvetleaf; [2]
  Velvetleaf plant response rating: 0
velvetleaf; [3]
  Velvetleaf plant response rating: 0
velvetleaf; [4]
  Velvetleaf plant response rating: 0
velvetleaf; [5]
  Velvetleaf plant response rating: 0
velvetleaf; [6]
  Plant response rating, Velvetleaf: 0
Sugar beet; [1]
  Sugarbeets plant response rating: 0
Sugar beet; Preemergence, Rate 125 g/ha
  Sugarbeets plant response rating (0 to 10 scale): 0
Sugar beet; [2]
  Sugarbeets plant response rating: 0
Sugar beet; [3]
  Sugarbeets plant response rating: 0
Sugar beet; [4]
  Sugarbeets plant response rating: 0
Sugar beet; [5]
  Sugarbeets plant response rating: 0
Sugar beet; [6]
  Plant response rating, Sugarbeets: 0
cocklebur; [1]
  Cocklebur plant response rating: 0
cocklebur; Preemergence, Rate 125 g/ha
  Cocklebur plant response rating (0 to 10 scale): 0
cocklebur; [2]
  Cocklebur plant response rating: 0
cocklebur; [3]
  Cocklebur plant response rating: 0
cocklebur; [4]
  Cocklebur plant response rating: 0
cocklebur; [5]
  Cocklebur plant response rating: 0
cocklebur; [6]
  Plant response rating, Cocklebur: 0
cocklebur; [11]
  Cocklebur plant response rating: 0
rice; [7]
  Rice plant response rating: 0
rice; [8]
  Rice plant response rating: 0
rice; [9]
  Rice plant response rating: 0
rice; [10]
  Rice plant response rating: 0
pigweed; [1]
  Redroot pigweed plant response rating: 0
pigweed; Preemergence, Rate 125 g/ha
  Redroot pigweed plant response rating (0 to 10 scale): 0
pigweed; [2]
  Redroot pigweed plant response rating: 0
pigweed; [3]
  Redroot pigweed plant response rating: 0
pigweed; [4]
  Redroot pigweed plant response rating: 0
pigweed; [5]
  Redroot pigweed plant response rating: 0
pigweed; [6]
  Plant response rating, Redroot pigweed: 0
corn; [1]
  Corn plant response rating: 0
corn; Preemergence, Rate 125 g/ha
  Corn plant response rating (0 to 10 scale): 0
corn; [2]
  Corn plant response rating: 0
corn; [3]
  Corn plant response rating: 0
corn; [4]
  Corn plant response rating: 0
corn; [5]
  Corn plant response rating: 0
corn; [6]
  Plant response rating, Corn: 0
corn; [11]
  Corn plant response rating: 0
crabgrass; [1]
  Crabgrass plant response rating: 0
crabgrass; Preemergence, Rate 125 g/ha
  Crabgrass plant response rating (0 to 10 scale): 0
crabgrass; [2]
  Crabgrass plant response rating: 2
crabgrass; [3]
  Crabgrass plant response rating: 3
crabgrass; [4]
  Crabgrass plant response rating: 0
crabgrass; [5]
  Crabgrass plant response rating: 0
crabgrass; [6]
  Plant response rating, Crabgrass: 0
Wild oat; [1]
  Wild oats plant response rating: 0
Wild oat; Preemergence, Rate 125 g/ha
  Wild oats plant response rating (0 to 10 scale): 0
Wild oat; [2]
  Wild oats plant response rating: 0
Wild oat; [3]
  Wild oats plant response rating: 0
Wild oat; [4]
  Wild oats plant response rating: 0
Wild oat; [5]
  Wild oats plant response rating: 0
Wild oat; [6]
  Plant response rating, Wild oats: 0
blackgrass; [1]
  Blackgrass plant response rating: 0
blackgrass; Preemergence, Rate 125 g/ha
  Blackgrass plant response rating (0 to 10 scale): 0
blackgrass; [2]
  Blackgrass plant response rating: 2
blackgrass; [3]
  Blackgrass plant response rating: 4
blackgrass; [4]
  Blackgrass plant response rating: 0
blackgrass; [5]
  Blackgrass plant response rating: 0
blackgrass; [6]
  Plant response rating, Blackgrass: 0
blackgrass; [11]
  Blackgrass plant response rating: 3
Giant foxtail; [1]
  Giant foxtail plant response rating: 6
Giant foxtail; Preemergence, Rate 125 g/ha
  Giant foxtail plant response rating (0 to 10 scale): 7
Giant foxtail; [2]
  Giant foxtail plant response rating: 9
Giant foxtail; [3]
  Giant foxtail plant response rating: 9
Giant foxtail; [4]
  Giant foxtail plant response rating: 0
Giant foxtail; [5]
  Giant foxtail plant response rating: 0
Giant foxtail; [6]
  Plant response rating, Giant foxtail: 0
bedstraw; [1]
  Bedstraw plant response rating: 0
bedstraw; Preemergence, Rate 125 g/ha
  Bedstraw plant response rating (0 to 10 scale): 0
bedstraw; [2]
  Bedstraw plant response rating: 0
bedstraw; [3]
  Bedstraw plant response rating: 7
bedstraw; [4]
  Bedstraw plant response rating: 0
bedstraw; [5]
  Bedstraw plant response rating: 0
